From patent US20100130408A1, “USE OF MODIFIED CYCLOSPORINS” (priority 2006, published 2010)

What was measured:
[1] = molecular target: T1, human recombinant cyclophilin (Homo sapiens, UniProt P62937); assay: competitive ELISA cyclophilin binding test (Binding Ratio); settings: log to the base 10 of IC50 test compound / IC50 cyclosporin A
Protocol: A cyclosporin is considered as binding to cyclophilin if it binds to human recombinant cyclophilin at least one fifth as well as does cyclosporin A in the competitive ELISA test described by Quesniaux in Eur. J. Immunol. 1987 17 1359-1365. In this test, the cyclosporin to be tested is added during the incubation of cyclophilin with coated BSA-cyclosporin A and the concentration required to give a 50% inhibition of the control reaction without competitor is calculated (IC50). The results are expressed as the Binding Ratio (BR), which is the log to the base 10 of the ratio of the IC50 of the test compound and the IC50 in a simultaneous test of cyclosporin A itself.

Balb/c spleen cells = assay: Mixed Lymphocyte Reaction (MLR); type: cell-based, mice; settings: percentage of the activity relative to Cyclosporin A
Protocol: A cyclosporin is considered to be non-immunosuppressive when it has an activity in the Mixed Lymphocyte Reaction (MLR) of no more than 5%, preferably no more than 2%, that of cyclosporin A. The Mixed Lymphocyte Reaction is described by T. Meo in “Immunological Methods”, L. Lefkovits and B. Peris, Eds., Academic Press, N.Y. pp. 227-239 (1979). Spleen cells (0.5×106) from Balb/c mice (female, 8-10 weeks) are co-incubated for 5 days with […] irradiated (2000 reds) or mitomycin C treated spleen cells from CBA mice (female, 8-10 weeks). The irradiated allogeneic cells induce a proliferative response in the Balb/c spleen cells which can be measured by labeled precursor incorporation into the DNA. […] The IC50 found for the test compound in the MLR is compared with that found for cyclosporin A in a parallel experiment. In addition, non-immunosuppressive cyclosporins lack the capacity of inhibiting CN and the downstream NF-AT pathway.

[2] = molecular target: T1, human recombinant cyclophilin; assay: competitive ELISA, cyclophilin on coated BSA-cyclosporin A, reference cyclosporin A; settings: scale: log10
HSCs = settings: cited from earlier work
HCV = settings: Watashi et al., Hepatology (2003); cited from earlier work

T1 sequence (P62937 whole entry): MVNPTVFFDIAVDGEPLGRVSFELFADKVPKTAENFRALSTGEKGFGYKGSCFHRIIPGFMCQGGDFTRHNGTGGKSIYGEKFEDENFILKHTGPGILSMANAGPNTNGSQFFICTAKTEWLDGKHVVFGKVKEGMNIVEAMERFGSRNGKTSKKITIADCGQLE

Row | Molecule | Binding Ratio (BR) [1] | IR = Immunosuppressive Ratio (Balb/c spleen cells) [%] | Binding Ratio (BR) [2] | also measured
1 | [Ethyl-lle]^4-Ciclosporin | 0.1 | < 2 | – | –
2 | [y-hydroxy-MeLeu]^4-Ciclosporin (peptide) | – | – | 0.4 | –
3 | [Ethyl-Val]^4-Ciclosporin (peptide) | – | – | 0 | –
4 | [MeVal]^4-Ciclosporin (peptide) | – | – | 0.1 | –
5 | [Ethyl-Val]^4-Ciclosporin | 0 | < 2 | – | –
6 | C=CC[C@@H]1/C=C(\C)C[C@H](C)C[C@H](OC)[C@H]2O[C@@](O)(C(=O)C(=O)N3CCCC[C@H]3C(=O)O[C@H](/C(C)=C/[C@@H]3CC[C@@H](O)[C@H](OC)C3)[C@H](C)[C@@H](O)CC1=O)[C@H](C)C[C@@H]2OC [tacrolimus] | – | – | – | reduction of collagen production (HSCs; 12.5 nM (10 ng/ml), previously reported in Nakamuta et al): does not significantly reduces collagen production; cell growth and collagen production in HSCs (HSCs; previous evaluation of immunosuppressive drugs): did not have such effects; replication of HCV in vitro (HCV): did not show this effect
7 | [Ethyl-lle]^4-Ciclosporin (peptide) | – | – | 0.1 | –
8 | [MeAla]^6-Ciclosporin (peptide) | – | – | -0.4 | –
9 | [y-hydroxy-MeLeu]^9-Ciclosporin (peptide) | – | – | 0.15 | –
10 | [Melle]^4-Ciclosporin (peptide) | – | – | -0.2 | –
11 | [8′-hydroxy-MeBmt]^1-Ciclosporin | 0.35 | 1.8 | – | –
12 | [8'-hydroxy-MeBmt]^1-Ciclosporin (peptide) | – | – | 0.35 | –
13 | [y-hydroxy-MeLeu]^4-Ciclosporin | 0.4 | < 1 | – | –
14 | [dihydro-MeBmt]^1-[y-hydroxy-MeLeu]^4-Ciclosporin (peptide) | – | – | 0.1 | –
15 | [dihydro-MeBmt]^1-[y-hydroxy-MeLeu]^4-Ciclosporin | 0.1 | < 1 | – | –
16 | [MeAla]^6-Ciclosporin | −0.4 | 3.2 | – | –
17 | [Melle]^4-Ciclosporin | −0.2 | < 1 | – | –
18 | [MeVal]^5-Ciclosporin (peptide) | – | – | 0.4 | –
19 | [MeVal]^5-Ciclosporin | 0.4 | 5.3 | – | –
20 | [y-hydroxy-MeLeu]^9-Ciclosporin | 0.15 | 2.9 | – | –
21 | [MeVal]^4-Ciclosporin | 0.1 | < 1 | – | –
